Experimental data from ChEMBL document CHEMBL1144985, “Rational design, synthesis and structure-activity relationships of a cyclic succinate series of TNF-alpha converting enzyme inhibitors. Part 2: lead optimization” (Bioorg Med Chem Lett, 2003).

How the values were obtained:
Homo sapiens = species on record: Homo sapiens; assay: In vitro inhibition of TNF-alpha production was determined by using LPS-stimulated human whole blood assay (WBA); format: functional
[1] = target: Matrix metalloproteinase-9 (Homo sapiens, UniProt P14780); assay: Inhibitory activity against matrix metalloprotease-9 (MMP-9)
[2] = target: 72 kDa type IV collagenase (Homo sapiens, UniProt P08253); assay: Inhibitory activity against matrix metalloprotease-2 (MMP-2)
Interstitial collagenase = target: T1, Interstitial collagenase (Homo sapiens, UniProt P03956); assay: Inhibitory activity against matrix metalloprotease-1 (MMP-1)
T1 sequence (P03956 whole entry): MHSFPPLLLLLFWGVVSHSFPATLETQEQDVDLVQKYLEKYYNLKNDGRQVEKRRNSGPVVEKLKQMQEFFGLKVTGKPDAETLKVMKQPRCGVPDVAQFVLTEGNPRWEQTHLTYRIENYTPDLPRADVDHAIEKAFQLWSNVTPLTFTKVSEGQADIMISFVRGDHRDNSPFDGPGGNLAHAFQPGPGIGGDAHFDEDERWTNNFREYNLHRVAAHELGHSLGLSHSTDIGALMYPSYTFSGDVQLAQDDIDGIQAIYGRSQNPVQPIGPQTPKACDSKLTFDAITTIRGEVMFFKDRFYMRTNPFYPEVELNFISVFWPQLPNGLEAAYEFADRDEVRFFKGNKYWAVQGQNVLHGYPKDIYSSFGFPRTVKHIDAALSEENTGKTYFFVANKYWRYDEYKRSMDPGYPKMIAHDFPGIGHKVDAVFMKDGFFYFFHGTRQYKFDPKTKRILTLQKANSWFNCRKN

[3] = target: Disintegrin and metalloproteinase domain-containing protein 17 (Sus scrofa, UniProt O77636); assay: In vitro binding affinity against porcine TACE
[4] = Solubility was determined
Caco-2 = conditions: Homo sapiens
Description: Caco-2 permeability was determined

Sequence of Matrix metalloproteinase-9 (P14780 whole entry): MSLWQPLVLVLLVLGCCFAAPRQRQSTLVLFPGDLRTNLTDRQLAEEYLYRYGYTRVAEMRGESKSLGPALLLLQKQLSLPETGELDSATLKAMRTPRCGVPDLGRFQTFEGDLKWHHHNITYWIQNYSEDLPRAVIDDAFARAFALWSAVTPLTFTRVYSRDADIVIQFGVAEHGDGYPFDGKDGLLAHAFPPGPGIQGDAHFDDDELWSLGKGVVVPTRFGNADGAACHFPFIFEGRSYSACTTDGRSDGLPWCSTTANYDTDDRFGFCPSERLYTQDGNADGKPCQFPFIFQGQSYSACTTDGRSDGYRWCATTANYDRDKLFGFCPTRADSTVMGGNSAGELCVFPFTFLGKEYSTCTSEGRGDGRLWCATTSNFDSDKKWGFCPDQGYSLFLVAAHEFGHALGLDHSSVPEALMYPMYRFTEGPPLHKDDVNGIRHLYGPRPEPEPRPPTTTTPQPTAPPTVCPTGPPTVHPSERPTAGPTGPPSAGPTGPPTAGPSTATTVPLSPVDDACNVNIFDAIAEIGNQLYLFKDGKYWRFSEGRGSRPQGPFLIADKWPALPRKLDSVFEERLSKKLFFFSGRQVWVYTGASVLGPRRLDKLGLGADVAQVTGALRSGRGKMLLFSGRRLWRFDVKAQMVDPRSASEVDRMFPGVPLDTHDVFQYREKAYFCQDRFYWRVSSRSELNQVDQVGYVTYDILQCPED
Sequence of Disintegrin and metalloproteinase domain-containing protein 17 (O77636 whole entry, the tested form may be a part): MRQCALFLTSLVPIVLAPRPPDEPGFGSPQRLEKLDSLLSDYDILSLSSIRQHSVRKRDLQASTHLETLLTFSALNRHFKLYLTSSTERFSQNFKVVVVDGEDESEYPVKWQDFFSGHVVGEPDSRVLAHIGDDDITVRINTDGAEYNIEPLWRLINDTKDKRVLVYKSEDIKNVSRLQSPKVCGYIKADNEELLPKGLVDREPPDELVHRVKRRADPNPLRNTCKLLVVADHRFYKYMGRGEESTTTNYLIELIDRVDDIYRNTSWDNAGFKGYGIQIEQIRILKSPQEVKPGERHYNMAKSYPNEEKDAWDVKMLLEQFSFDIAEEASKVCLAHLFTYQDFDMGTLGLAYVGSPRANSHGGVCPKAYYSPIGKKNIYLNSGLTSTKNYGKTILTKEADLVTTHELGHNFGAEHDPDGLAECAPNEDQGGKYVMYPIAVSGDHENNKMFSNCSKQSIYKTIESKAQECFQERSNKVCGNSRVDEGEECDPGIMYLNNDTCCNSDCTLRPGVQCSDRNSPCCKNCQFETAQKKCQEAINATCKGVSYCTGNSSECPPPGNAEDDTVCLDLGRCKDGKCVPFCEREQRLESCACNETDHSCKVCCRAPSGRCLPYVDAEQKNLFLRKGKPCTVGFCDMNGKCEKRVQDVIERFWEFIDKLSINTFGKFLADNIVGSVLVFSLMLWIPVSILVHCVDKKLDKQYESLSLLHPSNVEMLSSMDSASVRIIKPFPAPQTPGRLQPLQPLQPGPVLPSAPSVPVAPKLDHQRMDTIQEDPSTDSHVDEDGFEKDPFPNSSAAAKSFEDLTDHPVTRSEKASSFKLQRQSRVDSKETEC
Sequence of 72 kDa type IV collagenase (P08253 whole entry): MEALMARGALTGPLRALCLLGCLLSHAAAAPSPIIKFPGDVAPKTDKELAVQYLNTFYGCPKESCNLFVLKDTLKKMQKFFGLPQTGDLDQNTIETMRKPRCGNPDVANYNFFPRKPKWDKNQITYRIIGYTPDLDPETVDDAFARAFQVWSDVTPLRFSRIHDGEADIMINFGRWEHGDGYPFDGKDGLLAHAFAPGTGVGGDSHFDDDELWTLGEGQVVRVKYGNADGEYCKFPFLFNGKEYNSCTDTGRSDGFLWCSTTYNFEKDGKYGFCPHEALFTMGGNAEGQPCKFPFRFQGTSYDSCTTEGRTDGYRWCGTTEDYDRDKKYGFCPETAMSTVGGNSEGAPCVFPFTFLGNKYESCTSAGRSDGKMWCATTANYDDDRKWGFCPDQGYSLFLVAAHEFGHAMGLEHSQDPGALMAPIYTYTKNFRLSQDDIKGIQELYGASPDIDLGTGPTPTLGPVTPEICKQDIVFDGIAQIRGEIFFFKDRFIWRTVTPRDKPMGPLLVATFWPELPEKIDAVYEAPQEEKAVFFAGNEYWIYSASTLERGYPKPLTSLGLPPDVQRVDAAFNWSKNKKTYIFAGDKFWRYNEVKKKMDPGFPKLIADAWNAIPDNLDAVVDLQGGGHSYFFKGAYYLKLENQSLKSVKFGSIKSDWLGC

| SMILES | IC50 (Homo sapiens) | Ki [1] | Ki [2] | Ki (Interstitial collagenase) | IC50 [3] | solubility [4] | Papp (Caco-2) |
| --- | --- | --- | --- | --- | --- | --- | --- |
| Cc1cc(COc2ccc(NC(=O)[C@@H]3[C@@H](C(=O)NO)CCCN3C)cc2)c2ccccc2n1 | 20 nM | > 2130 nM | > 3.33 µM | > 4.95 µM | 6.2 nM | – | – |
| Cc1cc(COc2ccc(NC(=O)[C@H]3CCN(C(=O)OCc4cscn4)C[C@@H]3C(=O)NO)cc2)c2ccccc2n1 | 530 nM | 296 nM | 0.476 µM | > 4.95 µM | < 0.3 nM | – | – |
| Cc1cc(COc2ccc(NC(=O)[C@H]3CN(C(=O)c4ccco4)CC[C@@H]3C(=O)NO)cc2)c2ccccc2n1 | 1300 nM | > 2130 nM | > 3.33 µM | > 4.95 µM | < 0.3 nM | < 100 µg/mL | 0.2 10e-6 cm s-1 |
| O=C(NO)[C@H]1CN(C(=O)C2CC2)CC[C@@H]1C(=O)Nc1ccc(COc2ccnc3ccccc23)cc1 | 710 nM | > 2130 nM | > 3.33 µM | > 4.95 µM | 2 nM | – | – |
| Cc1cc(COc2ccc(NC(=O)[C@H]3CN(CC4CC4)CC[C@@H]3C(=O)NO)cc2)c2ccccc2n1 | 300 nM | > 2130 nM | > 3.33 µM | > 4.95 µM | 1 nM | > 10000 µg/mL | – |
| Cc1cc(COc2ccc(NC(=O)[C@@H]3[C@@H](C(=O)NO)CCCN3Cc3nccs3)cc2)c2ccccc2n1 | 1400 nM | > 2130 nM | > 3.33 µM | > 4.95 µM | 1 nM | – | – |
| Cc1cc(COc2ccc(NC(=O)[C@H]3CN(Cc4nccs4)CC[C@@H]3C(=O)NO)cc2)c2ccccc2n1 | 560 nM | > 2130 nM | > 3.33 µM | > 4.95 µM | 0.8 nM | – | – |
| CC(=O)N1CC[C@H](C(=O)Nc2ccc(COc3ccnc4ccccc34)cc2)[C@@H](C(=O)NO)C1 | 560 nM | > 2130 nM | > 3.33 µM | > 4.95 µM | 1 nM | – | – |
| O=C(NO)[C@H]1CN(C(=O)C2CC2)CC[C@@H]1C(=O)Nc1ccc(Oc2ccnc3ccccc23)cc1 | > 50000 nM | > 2130 nM | > 3.33 µM | > 4.95 µM | > 1000 nM | – | – |
| O=C(NO)[C@H]1CCCC[C@@H]1C(=O)Nc1ccc(COc2ccnc3ccccc23)cc1 | > 50000 nM | > 2130 nM | > 3.33 µM | > 4.95 µM | – | – | – |
| Cc1cc(COc2ccc(NC(=O)[C@H]3CN(C)CC[C@@H]3C(=O)NO)cc2)c2ccccc2n1 | 100 nM | > 2130 nM | > 3.33 µM | > 4.95 µM | 5 nM | – | – |
| CC(=O)N1CC[C@H](C(=O)Nc2ccc(COc3ccnc4cc(C(F)(F)F)ccc34)cc2)[C@@H](C(=O)NO)C1 | 2600 nM | > 2130 nM | > 3.33 µM | > 4.95 µM | 3.2 nM | – | – |
| COC(=O)N1CC[C@H](C(=O)Nc2ccc(OCc3cc(C)nc4ccccc34)cc2)[C@@H](C(=O)NO)C1 | 570 nM | 767 nM | 1.11 µM | > 4.95 µM | 0.28 nM | – | – |
| Cc1cc(COc2ccc(NC(=O)[C@H]3CCN(C(=O)OC4CC4)C[C@@H]3C(=O)NO)cc2)c2ccccc2n1 | 700 nM | 209 nM | 0.642 µM | > 4.95 µM | 0.83 nM | – | – |
| O=C(NO)[C@H]1CN(C(=O)C2CC2)CC[C@@H]1C(=O)Nc1ccc(OCc2ccnc3ccccc23)cc1 | 1300 nM | > 2130 nM | > 3.33 µM | > 4.95 µM | 1 nM | – | – |
| Cc1cc(COc2ccc(NC(=O)[C@H]3CCNC[C@@H]3C(=O)NO)cc2)c2ccccc2n1 | 4300 nM | > 2130 nM | > 3.33 µM | > 4.95 µM | 1.5 nM | > 10000 µg/mL | – |
| Cc1cc(COc2ccc(NC(=O)[C@H]3CCN(S(=O)(=O)c4cn(C)cn4)C[C@@H]3C(=O)NO)cc2)c2ccccc2n1 | 1500 nM | 366 nM | 1 µM | > 4.95 µM | 0.31 nM | – | – |
| Cc1cc(COc2ccc(NC(=O)[C@H]3CNCC[C@@H]3C(=O)NO)cc2)c2ccccc2n1 | 530 nM | > 2130 nM | > 3.33 µM | > 4.95 µM | 3 nM | > 10000 µg/mL | – |
| Cc1cc(COc2ccc(NC(=O)[C@H]3NCCC[C@@H]3C(=O)NO)cc2)c2ccccc2n1 | 120 nM | > 2130 nM | > 3.33 µM | > 4.95 µM | 1 nM | – | – |
| Cc1cc(COc2ccc(NC(=O)[C@H]3CCN(C(C)C)C[C@@H]3C(=O)NO)cc2)c2ccccc2n1 | 1200 nM | > 2130 nM | > 3.33 µM | > 4.95 µM | 1.2 nM | > 10000 µg/mL | – |
| Cc1cc(COc2ccc(NC(=O)[C@H]3CCN(C(=O)OC(C)C)C[C@@H]3C(=O)NO)cc2)c2ccccc2n1 | 210 nM | 252 nM | 0.771 µM | > 4.95 µM | 0.44 nM | – | – |
| O=C(NO)[C@H]1CN(C(=O)c2ccco2)CC[C@@H]1C(=O)Nc1ccc(COc2ccnc3ccccc23)cc1 | 700 nM | > 2130 nM | > 3.33 µM | > 4.95 µM | 0.8 nM | – | – |
| CCN1CCC[C@H](C(=O)NO)[C@H]1C(=O)Nc1ccc(OCc2cc(C)nc3ccccc23)cc1 | 100 nM | > 2130 nM | > 3.33 µM | > 4.95 µM | 8 nM | > 10000 µg/mL | – |
| Cc1cc(COc2ccc(NC(=O)[C@H]3CCN(C4CCC4)C[C@@H]3C(=O)NO)cc2)c2ccccc2n1 | 1100 nM | > 2130 nM | > 3.33 µM | > 4.95 µM | 1.6 nM | > 10000 µg/mL | – |
| Cc1cc(COc2ccc(NC(=O)[C@H]3CCN(S(C)(=O)=O)C[C@@H]3C(=O)NO)cc2)c2ccccc2n1 | 1360 nM | 306 nM | 0.656 µM | > 4.95 µM | 0.48 nM | – | – |
| Cc1cc(COc2ccc(NC(=O)[C@H]3CCN(C(=O)OCc4nccs4)C[C@@H]3C(=O)NO)cc2)c2ccccc2n1 | 450 nM | 768 nM | 1.54 µM | > 4.95 µM | < 0.3 nM | – | – |
| CCCC(=O)N1CC[C@H](C(=O)Nc2ccc(OCc3cc(C)nc4ccccc34)cc2)[C@@H](C(=O)NO)C1 | 330 nM | > 2130 nM | > 3.33 µM | > 4.95 µM | 0.26 nM | – | – |
| Cc1cc(COc2ccc(NC(=O)[C@H]3CCN(C(=O)NC(C)(C)C)C[C@@H]3C(=O)NO)cc2)c2ccccc2n1 | 560 nM | > 2130 nM | > 3.33 µM | > 4.95 µM | 0.41 nM | – | – |
| Cc1cc(COc2ccc(NC(=O)[C@@H]3[C@@H](C(=O)NO)CCCN3CC3CC3)cc2)c2ccccc2n1 | 400 nM | > 2130 nM | > 3.33 µM | > 4.95 µM | 1 nM | – | – |
| Cc1cc(OCc2ccc(NC(=O)[C@H]3CCN(C(=O)c4ccco4)C[C@@H]3C(=O)NO)cc2)c2ccccc2n1 | 3400 nM | > 2130 nM | > 3.33 µM | > 4.95 µM | 3 nM | – | – |
